Data: patent US20240139167A1, “LYSOSOME-ASSOCIATED MEMBRANE PROTEIN TARGETING COMPOUNDS AND USES THEREOF” (HADASIT MEDICAL RESEARCH SERVICES AND DEVELOPMENT LTD., priority 2021, published 2024)
Entries after “also recorded” stand apart in the source; their conditions may differ.

Tests used:
[1] = system: HC and PD patient fibroblasts; assay: Seahorse ATP rate assay in Pompe disease fibroblasts; assay type: cell-based, human
Description: FIG. 17 includes a vertical bar graph showing glycolytic (1) and mitochondrial (2) ATP production determined by Agilent's Seahorse machine and ATP rate assay kit. HC and PD patient fibroblasts were serum/glucose-starved for 48 h and then full medium was replenished for 24 h without (untreated), or with (chronic) 50 μM 144DG11. Acute, 50 μM 144DG11 was added on assay for 20 min after 24 h of serum/glucose replenishment. Readings were normalized to cell number as determined by Crystal Violet staining. Shown are mean and SD values based on n=6 repeats. In acutely 144DG11-treated PD fibroblasts, glycolytic and total ATP production was increased, as compared to untreated PD cells (p<0.002, One Way ANOVA with Sidak's post-hoc correction for multiple comparisons).

[2] = system: primary human non-small-cell lung cancer (NSCLC) cells; assay: LC3, p62 and PAS staining of lung cancer cells; assay type: cell-based
Description: FIGS. 20A-20B include fluorescent micrographs showing primary non-small cell-lung cancer. Cells were treated and stained for the autophagic substrates LC3 (20A) and p62 (20B) as in 19A-19B.
(§1) NAD+ and NADH are key precursors for the electron transfer chain, TCA cycle, glycolysis, amino acid synthesis, fatty acid synthesis, and nucleotide synthesis. The NAD+/NADH ratio reports the extent of overall catabolism and the balance between glycolysis and OxPhos. The increase in the NAD+/NADH ratio means acceleration of electron flow in the mitochondrial electron transport chain (note, not mitochondrial ATP production) and of glycolysis to better manage metabolic demands. Furthermore, Sirt1 induction, often associated with increased NAD+/NADH ratio, is a well-documented and innovative anti-aging, calorie restriction-mimic and anti-cancer therapeutic strategy (see for example Hyun et al., (2020)). Thus, the results in Gsd1a cells (FIG. 21), showing induction of the NAD+/NADH ratio, as well as Sirt1, indicate that 144DG11 is a promising therapy for a plethora of different metabolic disorders, aging-related complications, and cancer.

[3] = system: LAMP1-KD and GFP control APBD primary fibroblasts; assay: LAMP1 knockdown: autophagic flux, lysosomal pH (Lysosensor), PAS glycogen; assay type: cell-based, human
From the text: FIGS. 6A-6E include bar graphs of autophagic flux, determined by the extent of lysosomal inhibitors-dependent increase in the ratio of lipidated to non-lipidated LC3 (LC3II/LC3I) (6A); representative TEM images of liver tissue from 9.5 month old Gbe^ys/ys mice treated with Compound 11, or 5% DMSO vehicle (6B), G: Glycogen (alpha particles) and polyglucosan (structures with variable electron densities), L: Lysosomes, M: Mitochondria; right panel: lysosomal glycogen stain was quantified by ImageJ “count particle” tool; micrograph of LAMP1 knocked down and control APBD primary skin fibroblasts treated or not with Compound 1 and lysosomal inhibitors (LI) and quantification of 3 experiments and results of Student's t-tests. *, p<0.1; **, p<0.05; ***, p<0.01 (6C); graphs of lysosomal pH changes determined in APBD primary fibroblasts transduced with lentiviruses encoding for GFP or GFP-shLAMP1 and treated or not with Compound 1 for 24 h and confocal microscope images of cells treated with Lysosensor and stained for PAS (6D); and bar graph of ATP production rate assay in LAMP1-KD and GFP (Control) cells treated for 24 h (chronic) or on assay (acute) with Compound 1 (6E).
To determine the functional importance of the interaction between Compound 1 and LAMP1, the inventors knocked down the latter using a lentiviral vector carrying GFP tagged shRNA against LAMP1. […] Furthermore, to test whether LAMP1-KD and Compound 1 enhanced autophagic flux by improving lysosomal function, the inventors quantified lysosomal acidification using the pH ratiometric dye Lysosensor™, which quantifies pH based on the yellow/blue emission ratio. […] The inventors show by flow cytometry (FIG. 6D, upper panel) the overall cellular acidification as an increase in 375 nm-excited yellow/blue emission, and by confocal microscopy that this acidification is associated with brighter yellow fluorescence in lysosomes (FIG. 6D, middle panel).

[4] = system: skin fibroblasts derived from Gsd1a patients; assay: NAD+/NADH ratio, Sirt1 and p62 expression; assay type: cell-based, human; conditions: 50 μM, 24 h
Description: FIG. 21 includes vertical bar graphs showing skin fibroblasts derived from Gsd1a patients were treated with solvent or 50 μM Compound A for 24 h and analyzed for NAD+/NADH ratio by the Promega kit (left panel) and for Sirt1 (middle panel) and p62 (right panel) expression by western immunoblotting.
as §1

PD primary fibroblasts = assay: PAS staining of glycogen in Pompe disease fibroblasts; assay type: cell-based, human; conditions: 24 h, 50 μM; listed as 144DG11
From the text: Yellow, Calcein used for cell segmentation, Blue, DAPI nuclear stain.

## COCCN(Cc1sccc1C)C(=O)c1cc(C)nc(O)c1 [Compound 1]
[1]; 24 h pre-treatment
  effect on ATP production: not significant
[1]; PD fibroblasts, 50 μM
  overall ATP production: increased
  relative contribution of glycolytic ATP production at the expense of mitochondrial (OxPhos) ATP production: increased
[1]; PD fibroblasts, acute 50 μM 20 min, p<0.002
  glycolytic and total ATP production: increased
[2]
  autophagy (LC3, p62): induced autophagy
  glycogen levels: did not lower glycogen levels
[3]; 24 h serum starvation
  autophagic flux in LAMP1 knocked down cells: further enhanced
[3]; GFP and LAMP1-KD APBD cells, 24 h
  lysosomal pH (Lysosensor): led to lysosomal acidification
[3]; GFP control and shLAMP1-GFP transduced
  reduction of cellular glycogen levels by LAMP knockdown (PAS): slightly enhanced
[4]
  NAD+/NADH ratio: induction
  Sirt1 expression: induction
  p62 expression: downmodulated
PD primary fibroblasts
  glycogen (PAS staining): reduce glycogen; also recorded: significantly lowered PAS staining
